{"source": "patent US11801256B2", "about": "“Antidepressant-psilocybin co-treatment to assist psychotherapy” (Universitätsspital Basel, priority 2021, dated 2023)", "key": {"healthy subjects [1]": {"tested_on": "healthy subjects", "test": "Adjective Mood Rating Scale (AMRS)", "format": "in vivo, human", "details": "escitalopram 14 days pretreatment vs placebo; P=0.007", "description": "(§1) Treatment order was random and counterbalanced.\nThe 60-item Adjective Mood Rating Scale (AMRS) (Janke & Debus, 1978) was administered before and 2, 3, 5, and 7 hours after psilocybin administration.\nThe criterion for significance was p<0.05."}, "healthy subjects [2]": {"tested_on": "healthy subjects", "test": "5 Dimensions of Altered States of Consciousness Scale (5D-ASC)", "format": "in vivo, human", "details": "escitalopram 14 days pretreatment vs placebo", "excerpt": "as §1\n5-Dimensional Altered States of Consciousness (5D-ASC): The 5-dimensional Altered States of Consciousness (5D-ASC) Scale is a visual analog scale consisting of 94 items (Dittrich, 1998; Studerus et al., 2010). The instrument contains five main scales (FIG. 17) and 11 newer subscales (FIG. 18) assessing mood, anxiety, derealization, depersonalization, changes in perception, auditory alterations, and reduced vigilance. The scale is well-validated (Studerus et al., 2010). The total ASC score is the sum of the three main dimensions/scales Oceanic Boundlessness (OB), Anxious Ego Dissolution (AED) and Visionary Restructuralization (VR). There are two additional main scales measuring Auditory Alterations (AA) and Vigilance Reduction (VIR) (FIG. 17). The 5D-ASC scale was administered once at the end of the session and subjects were instructed to retrospectively rate peak alterations that have been experienced during the study session. Each item of the scale is scored on a 0-100 mm VAS. The attribution of the individual items to the subscales of the 5D-ASC was analyzed according to (Dittrich, 1998; Studerus et al., 2010) and as shown in FIG. 18. The scale was be administered once at the end of each test session."}, "healthy subjects [3]": {"tested_on": "healthy subjects", "test": "Mystical Experience Questionnaire (MEQ30, MEQ43)", "format": "in vivo, human", "details": "escitalopram 14 days pretreatment vs placebo; P=0.001", "description": "as §1\nMystical experiences were assessed using the German version (Liechti et al., 2017) of the 100-item States of Consciousness Questionnaire (SOCQ) (Griffiths et al., 2006) that includes the 43-item and newer 30-item MEQ (MEQ43 (Griffiths et al., 2006) and MEQ30 (Barrett et al., 2015)). The scale was be administered once at the end of each test session."}, "healthy subjects [4]": {"tested_on": "healthy subjects", "test": "Autonomic measures (blood pressure, heart rate, body temperature, pupil size)", "description": "Study design: A double-blind, cross-over design was used with two conditions. […] 2) Pretreatment with placebo for 14 days with the last administration on the study day and administration of 25 mg psilocybin 2 hours later. Treatment order was random and counterbalanced. Between the 14 days pretreatment and the study day, there were at least 2 days washout until the next pretreatment phase began.\nAutonomic measures: Blood pressure, heart rate, and body temperature were recorded at baseline and repeatedly throughout the session. Blood pressure (systolic and diastolic) and heart rate were measured with an automatic oscillometric device. Body temperature was measured with an ear thermometer as previously described in detail (Hysek et al., 2010). Measures were taken before and at 0, 0.25, 0.5, 0.75, 1, 1.5, 2, 2.5, 3, 4, 5, 6 and 7 hours after psilocybin administration.\nData analysis: Peak (Emax and/or Emin) or peak change from baseline (ΔEmax) values were determined for repeated measures. The values were then analyzed using paired T-tests using Statistica 12 software (StatSoft, Tulsa, OK, USA). The criterion for significance was p<0.05."}, "healthy subjects [5]": {"tested_on": "healthy subjects", "test": "Adverse effects (list of complaints) and adverse events", "format": "in vivo, human", "description": "as §1\nAdverse effects (list of complaints): The list of complaints (LC) consists of 66 items offering a global score measuring physical and general discomfort (Zerssen, 1976). This scale yields a total adverse effects score and reliably measures physical and general discomfort. The LC list was administered 7 hours after administration of the drug with reference to complaints throughout the entire session."}, "[6]": {"test": "Plasma drug concentrations and pharmacokinetic analyses", "format": "in vivo, human", "details": "for concentration at 14 days: human, in vivo", "description": "The blood samples were immediately centrifuged, and the plasma was subsequently stored at −80° C. until analysis.\nThis allows to determine the concentrations of unconjugated psilocin and of psilocin glucuronide which corresponds to the difference between samples that were incubated with and without glucuronidase."}, "BDNF": {"tested_on": "BDNF", "test": "Plasma BDNF levels (ELISA)", "format": "in vivo, human", "details": "escitalopram 14 days pretreatment vs placebo", "description": "Psychedelics can induce neuroregeneration (Ly et al., 2018). Plasma BDNF levels are a possible biomarker for neurogenesis (Haile et al., 2014). Psychedelics increase BDNF (Holze et al., 2021; Hutten et al., 2020) and higher BDNF levels were associated with lower depression ratings after administration of psychedelics (de Almeida et al., 2019). Plasma BDNF levels were measured at baseline and 4 and 7 hours after drug administration using the Biosensis Mature BDNF Rapid ELISA Kit (Thebarton, Australia) (Akimoto et al., 2019)."}, "CYP2C19": {"target": "CYP2C19 (Homo sapiens, UniProt P33261)", "sequence (P33261 whole entry)": "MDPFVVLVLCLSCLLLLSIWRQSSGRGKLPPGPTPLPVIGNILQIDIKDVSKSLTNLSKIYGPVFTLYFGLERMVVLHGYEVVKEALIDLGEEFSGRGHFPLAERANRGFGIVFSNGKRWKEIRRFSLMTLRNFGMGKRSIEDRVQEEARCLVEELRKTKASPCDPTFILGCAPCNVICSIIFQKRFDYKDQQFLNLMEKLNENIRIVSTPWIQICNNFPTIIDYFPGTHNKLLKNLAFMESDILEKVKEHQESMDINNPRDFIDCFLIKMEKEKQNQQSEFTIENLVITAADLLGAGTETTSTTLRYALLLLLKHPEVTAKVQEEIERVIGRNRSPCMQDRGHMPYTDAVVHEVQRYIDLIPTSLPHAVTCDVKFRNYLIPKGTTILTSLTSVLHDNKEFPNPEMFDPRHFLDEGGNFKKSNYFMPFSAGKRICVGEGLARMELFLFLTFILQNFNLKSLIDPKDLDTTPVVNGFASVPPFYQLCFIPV", "details": "FDA, 2017; Swissmedic, 2020; cited from earlier work"}, "2D6": {"target": "2D6 (Homo sapiens, UniProt P10635)", "sequence (P10635 whole entry)": "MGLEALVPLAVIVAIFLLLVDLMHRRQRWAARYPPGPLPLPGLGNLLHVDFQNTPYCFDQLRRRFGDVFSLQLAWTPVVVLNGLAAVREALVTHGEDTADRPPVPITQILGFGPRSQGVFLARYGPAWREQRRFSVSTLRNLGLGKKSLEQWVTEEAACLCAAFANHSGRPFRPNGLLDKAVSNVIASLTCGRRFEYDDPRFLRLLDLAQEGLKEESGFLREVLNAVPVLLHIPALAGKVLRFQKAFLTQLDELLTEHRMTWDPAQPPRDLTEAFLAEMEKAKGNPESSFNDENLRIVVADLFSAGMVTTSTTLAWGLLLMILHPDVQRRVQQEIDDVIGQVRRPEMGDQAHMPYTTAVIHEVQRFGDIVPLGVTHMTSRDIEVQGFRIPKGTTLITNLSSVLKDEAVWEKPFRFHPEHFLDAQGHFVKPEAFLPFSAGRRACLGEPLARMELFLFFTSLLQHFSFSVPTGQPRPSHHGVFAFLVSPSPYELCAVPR", "details": "FDA, 2017; Swissmedic, 2020; cited from earlier work"}, "[7]": {"details": "escitalopram pretreatment compared with placebo pretreatment (summary)"}, "[8]": {"details": "any time during escitalopram pretreatment"}, "[9]": {"details": "escitalopram 14 days pretreatment vs placebo"}}, "note": "Read-outs that look alike come from different tables or passages of the source."}
{"smiles": "CN(C)CCC[C@@]1(c2ccc(F)cc2)OCc2cc(C#N)ccc21", "note": "[Escitalopram, escitalopram]", "values": [{"measurement": "effect on psilocybin-induced anxiety in the AMRS", "setting": "healthy subjects [1]", "value": "significantly reduced"}, {"measurement": "effect on psilocybin-induced anxiety in the 5D-ASC", "setting": "healthy subjects [2]; P=0.026", "value": "significantly reduced"}, {"measurement": "effect on psilocybin-induced anxious ego dissolution in the 5D-ASC", "setting": "healthy subjects [2]; P=0.029", "value": "significantly reduced"}, {"measurement": "effect on psilocybin-induced nadir effects in the MEQ43", "setting": "healthy subjects [3]", "value": "significantly reduced"}, {"measurement": "effect on psilocybin-induced elevations in peak systolic blood pressure", "setting": "healthy subjects [4]; escitalopram 14 days pretreatment vs placebo, P<0.001", "value": "reduced"}, {"measurement": "effect on psilocybin-induced elevations in rate pressure product", "setting": "healthy subjects [4]; escitalopram 14 days pretreatment vs placebo, P=0.001", "value": "reduced"}, {"measurement": "effect on psilocybin-induced pupil dilation", "setting": "healthy subjects [4]; escitalopram 14 days pretreatment vs placebo, P=0.002", "value": "reduced"}, {"measurement": "effect on psilocybin-induced elevations in peak diastolic blood pressure", "setting": "healthy subjects [4]; escitalopram 14 days pretreatment vs placebo, P=0.017", "value": "reduced"}, {"measurement": "effect on psilocybin-induced cardio-stimulant effects", "setting": "healthy subjects [4]; escitalopram pretreatment compared to psilocybin alone (summary)", "value": "reduced"}, {"measurement": "effect on adverse autonomic effects of psilocybin", "setting": "healthy subjects [4]; [7]", "value": "significantly reduced"}, {"measurement": "adverse events during pretreatment: bruxism", "setting": "healthy subjects [5]; [8]", "value": 2, "unit": "subjects"}, {"measurement": "adverse events during pretreatment: decreased libido", "setting": "healthy subjects [5]; [8]", "value": 5, "unit": "subjects"}, {"measurement": "adverse events during pretreatment: diarrhea", "setting": "healthy subjects [5]; [8]", "value": 2, "unit": "subjects"}, {"measurement": "adverse events during pretreatment: difficulty concentrating", "setting": "healthy subjects [5]; [8]", "value": 1, "unit": "subjects"}, {"measurement": "adverse events during pretreatment: dizziness", "setting": "healthy subjects [5]; [8]", "value": 2, "unit": "subjects"}, {"measurement": "adverse events during pretreatment: dysorgasmia", "setting": "healthy subjects [5]; [8]", "value": 2, "unit": "subjects"}, {"measurement": "adverse events during pretreatment: feeling depressed", "setting": "healthy subjects [5]; [8]", "value": 3, "unit": "subjects"}, {"measurement": "adverse events during pretreatment: headache", "setting": "healthy subjects [5]; [8]", "value": 6, "unit": "subjects"}, {"measurement": "adverse events during pretreatment: increased appetite", "setting": "healthy subjects [5]; [8]", "value": 2, "unit": "subjects"}, {"measurement": "adverse events during pretreatment: insomnia", "setting": "healthy subjects [5]; [8]", "value": 2, "unit": "subjects"}, {"measurement": "adverse events during pretreatment: loss of appetite", "setting": "healthy subjects [5]; [8]", "value": 3, "unit": "subjects"}, {"measurement": "adverse events during pretreatment: nausea", "setting": "healthy subjects [5]; [8]", "value": "eight"}, {"measurement": "adverse events during pretreatment: restless legs", "setting": "healthy subjects [5]; [8]", "value": 2, "unit": "subjects"}, {"measurement": "adverse events during pretreatment: tiredness", "setting": "healthy subjects [5]; [8]", "value": 6, "unit": "subjects"}, {"measurement": "adverse events during pretreatment: visual disturbance", "setting": "healthy subjects [5]; [8]", "value": 1, "unit": "subjects"}, {"measurement": "effect on other adverse effects of psilocybin", "setting": "healthy subjects [5]; [7]", "value": "significantly reduced"}, {"measurement": "severe adverse event (symptomatic vertebral disc hernia)", "setting": "healthy subjects [5]; participant on escitalopram pretreatment, five days, prior to psilocybin", "value": "one"}, {"measurement": "peak plasma concentrations (mean, range)", "setting": "[6]; after 14 days escitalopram (10 mg 7 days, 20 mg 7 days)", "value": "41 (35-53) ng/mL"}, {"measurement": "effect on the pharmacokinetics of 4-HIAA", "setting": "[6]; [9]", "value": "did not relevantly or significantly alter"}, {"measurement": "effect on the pharmacokinetics of psilocin", "setting": "[6]; [9]", "value": "did not relevantly or significantly alter"}, {"measurement": "effect on the pharmacokinetics of psilocin glucuronide", "setting": "[6]; [9]", "value": "did not relevantly or significantly alter"}, {"measurement": "concentration at 14 days", "setting": "[6]; after 14 days escitalopram (10 mg 7 days, 20 mg 7 days), read-out: plasma concentrations (mean, range)", "value": 41, "unit": "ng/mL"}, {"measurement": "concentration at 14 days", "setting": "[6]; after 14 days escitalopram, described as high, read-out: plasma concentrations in all subjects", "value": "< 35", "unit": "ng/mL"}, {"measurement": "effect on the psilocybin-induced moderate increase in BDNF", "setting": "BDNF", "value": "did not significantly alter"}, {"measurement": "inhibition of CYP2C19 function", "setting": "CYP2C19", "value": "slightly inhibits"}, {"measurement": "inhibition of 2D6 function", "setting": "2D6", "value": "slightly inhibits"}]}
